Biological target: T1, LRRK2 (Rattus norvegicus, UniProt F1LNJ1)
T1 construct: from tissue; host or cells: rat brain (Sprague-Dawley rats)
Test: PET imaging in rats with arterial blood sampling (2TCM, VT)
Assay type: in vivo
Conditions: compound 3 (1 mg/kg) i.v. prior to tracer injection
Protocol: The promising pharmacological, pharmacokinetic, and in vitro autoradiographic data encouraged us to carry out preliminary dynamic PET imaging studies of [^11C]3 and [^18F]4. […] Given the superiority of fluorine-18 such as clean positron emission, low positron range, and relatively long half-life compared with carbon-11, [^18F]4 was subjected to further investigation (Figure 6). A blocking scan was carried out with intravenous administration of compound 3 (1 mg/kg) prior to tracer injection. For both baseline and blocking studies, blood samples were extracted from the artery. Both whole-blood and plasma radioactivity concentrations were evaluated, and radiometabolites were measured in plasma samples by radio high-performance liquid chromatography (HPLC) to generate metabolite-corrected input function (Figure S2). Compartmental analyses with one- and two-tissue compartment models (1TCM and 2TCM) were carried out on regional time–activity curves. […] In the baseline study, VT of various brain regions ranged from 2.2 to 2.9 mL/cm^3, confirming the high binding of the radiotracer.
The general procedure for PET studies was described previously[35],[41] with minor modification in this work. […] The radioactivity was decay-corrected and expressed as the standard uptake value: SUV = (radioactivity per mL tissue/injected radioactivity) × body weight.

T1 sequence (F1LNJ1 1-2526): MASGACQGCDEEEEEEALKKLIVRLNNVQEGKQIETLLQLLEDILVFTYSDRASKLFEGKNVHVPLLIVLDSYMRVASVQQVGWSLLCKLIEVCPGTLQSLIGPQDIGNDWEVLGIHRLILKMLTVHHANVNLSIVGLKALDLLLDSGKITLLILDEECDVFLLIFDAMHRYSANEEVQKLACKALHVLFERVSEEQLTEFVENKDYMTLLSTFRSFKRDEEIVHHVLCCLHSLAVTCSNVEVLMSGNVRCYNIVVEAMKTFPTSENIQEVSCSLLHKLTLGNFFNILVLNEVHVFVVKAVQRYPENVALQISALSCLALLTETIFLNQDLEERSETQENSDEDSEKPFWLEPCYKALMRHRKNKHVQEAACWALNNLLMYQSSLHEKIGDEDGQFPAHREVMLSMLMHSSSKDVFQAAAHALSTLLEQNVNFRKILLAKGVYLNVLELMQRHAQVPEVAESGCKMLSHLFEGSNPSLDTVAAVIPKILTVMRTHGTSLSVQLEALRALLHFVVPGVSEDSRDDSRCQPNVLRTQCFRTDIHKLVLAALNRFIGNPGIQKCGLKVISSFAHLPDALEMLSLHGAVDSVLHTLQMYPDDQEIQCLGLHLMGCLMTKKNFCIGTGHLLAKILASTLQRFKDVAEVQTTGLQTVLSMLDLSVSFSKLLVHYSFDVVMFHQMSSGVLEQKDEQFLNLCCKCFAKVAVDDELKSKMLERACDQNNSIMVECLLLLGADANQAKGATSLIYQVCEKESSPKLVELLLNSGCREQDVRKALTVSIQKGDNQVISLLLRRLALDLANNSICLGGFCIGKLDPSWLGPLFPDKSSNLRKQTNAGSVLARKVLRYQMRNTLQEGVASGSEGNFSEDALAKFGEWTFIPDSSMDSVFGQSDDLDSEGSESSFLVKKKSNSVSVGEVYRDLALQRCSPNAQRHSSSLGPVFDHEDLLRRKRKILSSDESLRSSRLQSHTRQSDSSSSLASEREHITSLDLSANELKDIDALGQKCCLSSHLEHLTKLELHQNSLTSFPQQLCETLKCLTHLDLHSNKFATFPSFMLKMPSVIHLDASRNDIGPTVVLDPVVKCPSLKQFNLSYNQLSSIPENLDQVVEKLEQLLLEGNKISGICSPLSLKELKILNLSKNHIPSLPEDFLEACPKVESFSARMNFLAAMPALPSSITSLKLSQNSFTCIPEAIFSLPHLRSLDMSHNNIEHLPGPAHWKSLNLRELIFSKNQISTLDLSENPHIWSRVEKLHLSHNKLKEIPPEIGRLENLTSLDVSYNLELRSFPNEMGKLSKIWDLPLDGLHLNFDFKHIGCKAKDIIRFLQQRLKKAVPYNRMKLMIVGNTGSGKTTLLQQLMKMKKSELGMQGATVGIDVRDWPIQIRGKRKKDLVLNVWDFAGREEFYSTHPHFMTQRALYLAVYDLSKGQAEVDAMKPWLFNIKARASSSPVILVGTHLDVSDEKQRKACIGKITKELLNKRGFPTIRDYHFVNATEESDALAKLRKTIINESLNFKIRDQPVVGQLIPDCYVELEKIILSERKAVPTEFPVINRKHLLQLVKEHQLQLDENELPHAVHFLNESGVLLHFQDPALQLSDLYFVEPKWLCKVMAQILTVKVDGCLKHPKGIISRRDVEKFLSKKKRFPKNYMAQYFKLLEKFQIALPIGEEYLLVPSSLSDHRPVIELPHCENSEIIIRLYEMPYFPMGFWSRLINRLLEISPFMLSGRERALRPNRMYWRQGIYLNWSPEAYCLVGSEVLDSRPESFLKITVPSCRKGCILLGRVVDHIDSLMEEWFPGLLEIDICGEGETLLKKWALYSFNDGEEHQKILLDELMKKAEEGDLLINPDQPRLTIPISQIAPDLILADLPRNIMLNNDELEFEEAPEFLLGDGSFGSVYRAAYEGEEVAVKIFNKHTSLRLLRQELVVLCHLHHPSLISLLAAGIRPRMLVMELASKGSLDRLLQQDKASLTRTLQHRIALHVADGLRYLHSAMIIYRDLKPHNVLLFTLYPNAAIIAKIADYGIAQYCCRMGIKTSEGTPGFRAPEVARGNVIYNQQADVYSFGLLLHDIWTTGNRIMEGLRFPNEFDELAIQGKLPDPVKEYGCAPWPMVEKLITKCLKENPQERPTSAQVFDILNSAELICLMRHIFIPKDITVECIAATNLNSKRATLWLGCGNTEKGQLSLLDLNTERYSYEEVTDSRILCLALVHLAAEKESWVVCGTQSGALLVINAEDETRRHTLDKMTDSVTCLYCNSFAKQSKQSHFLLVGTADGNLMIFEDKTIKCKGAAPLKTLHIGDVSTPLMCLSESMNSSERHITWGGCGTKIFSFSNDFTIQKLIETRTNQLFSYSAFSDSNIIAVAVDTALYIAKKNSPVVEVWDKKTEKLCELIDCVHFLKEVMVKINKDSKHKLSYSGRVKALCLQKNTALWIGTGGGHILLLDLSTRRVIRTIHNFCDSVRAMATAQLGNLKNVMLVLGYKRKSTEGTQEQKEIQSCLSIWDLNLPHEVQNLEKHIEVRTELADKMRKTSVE

uptake in various brain regions after pretreatment of compound 3: significant decrease of uptake
Compound: N#Cc1cccc(-c2c[nH]c3ncnc(N4CCOCC4)c23)c1[18F] [[^18F]4]

— paper PMC10895652, “Preclinical Evaluation of Novel Positron Emission Tomography (PET) Probes for Imaging Leucine-Rich Repeat Kinase 2 (LRRK2)” (Journal of Medicinal Chemistry, 2024)
